Measurements published in article PMC9501280, “Anti-Inflammatory Activity of Soluble Epoxide Hydrolase Inhibitors Based on Selenoureas Bearing an Adamantane Moiety” (International Journal of Molecular Sciences, 2022).
“Also recorded” adds a separate entry of the source.

Assays:
[1] = DPPH radical scavenging activity; conditions: compound solution 0.2 mM in MeOH mixed 1:1 with 0.2 mM DPPH, 40 min, 20 °C
Experimental: The free radical scavenging activity was evaluated using the stable radical 2,2-diphenyl-1-picrylhydrazyl (DPPH), according to the method described by Brand-Williams with a slight modification. Solutions of the compounds in MeOH were studied at a concentration of 0.2 mM. The stock DPPH solution contained 0.2 mM of radical in MeOH. An amount of 0.1 mL of the test compound solution was added to 0.1 mL of DPPH solution (0.2 mM) in each cell so that the initial DPPH concentration in the cells was 0.1 mM. The microplate was placed in a spectrophotometer, and the decrease in the absorbance values of the DPPH solution for 40 min at 20 °C was measured at λmax = 517 nm. The results were expressed as scavenging activity, calculated as follows: scavenging activity, % = [(A0 − A1)/A0] × 100, where A0 is the optical density of the control solution DPPH, and A1 is the optical density of the reaction mixture solution.

[2] = Cupric reducing antioxidant capacity (CUPRAC); conditions: Trolox equivalents (Trolox = 1); compound 0.5 mM, 30 min
Excerpt: To confirm the SET mechanism, the reducing activity of the compounds was studied using tests CUPRAC (Cupric-Reducing Antioxidant Capacity) and FRAP (Ferric ion-Reducing Antioxidant Power). Unlike the DPPH and ABTS tests, these methods are based only on the ability of substances to act as electron donors. It should be noted that the CUPRAC test has several advantages: the manifestation of activity at a pH close to the physiological value and a favorable redox potential; the method is applicable to both lipophilic and hydrophilic antioxidants. The antioxidant potential of the studied derivatives 4a–g and 5a is estimated in equivalents of the water-soluble analog of vitamin E—Trolox (TEAC—Trolox Equivalent Antioxidant Capacity), the activity of which is taken as the unit ([…] = 1, […] = 1).
Neocuproine (2,9-dimethyl-1,10-phenanthroline) and Trolox were used with no further purification. The method proposed by Apak et al. was used with slight modifications. For these measurements, 0.05 mL of CuCl2 solution (0.01 M), 0.05 mL of MeOH neocuproine solution (7.5 mM) and 0.05 mL of ammonium acetate buffer solution (1 M) were added to a test tube, followed by mixing with the 0.05 mL tested compounds (0.5 mM). The mixtures were kept at room temperature for 30 min. The absorbance was measured at 450 nm against a reagent blank. The results were presented in Trolox equivalents (Trolox equivalent antioxidant capacity, TEAC) obtained using absorbance data, and the linear calibration curve was plotted as the absorbance vs. Trolox concentration.

[3] = Ferrous ions (Fe2+) chelating activity (FIC); conditions: compound 5 mM; EDTA taken as 100%
Excerpt: One of the most important antioxidant properties of compounds is the ability to chelate transition metal ions, including iron, which participate in the Fenton reaction, forming an active HO^• and H2O2 and contributing to the development of radical processes, respectively, leading to oxidative damage to cells. In this regard, potential antioxidants can act not only as scavengers of active radicals but also have chelating properties. Therefore, the Ferrous Ions Chelating Activity (FIC) of compounds 4a–g and 5a were evaluated in this work by their ability to bind iron(II), which is expressed in a decreased amount of the colored ferrozine complex.
The chelation of ferrous ions by compounds was estimated by the method of Dinis et al. Briefly, 10 μL of 2 mM FeCl2 was added to 20 μL of the investigated compound (5 mM) and 150 μL of EtOH. The reaction was initiated by the addition of 0.04 mL of 5 mM ferrozine solution. The mixture was left to stand at 35 °C for 10 min. The absorbance of the solution was thereafter measured at 562 nm. The percentage inhibition of ferrozine–Fe^2+ complex formation was calculated as […], where A0 is the absorbance of the control, and As is the absorbance of the compound/standard. Na2EDTA was used as the positive control.

[4] = Nitric oxide radical scavenging assay (sodium nitroprusside, Griess); conditions: sample solution 0.5 mM, sodium nitroprusside 5 mM, 150 min
Experimental: The activity of compounds 4a–g and 5a with respect to NO^• generated from sodium nitroprusside, which further interacts with dissolved oxygen to form nitrite ions measured using the Griss reagent, was investigated.
Sodium nitroprusside (SNP) dissolved in aqueous solution at physiological pH 7.2 can generate nitric oxide whose level can be measured by the Griess reaction. Sample solution (50 µL, 0.5 mM) was mixed with SNP (50 µL, 5 mM) in phosphate buffer at pH 7.4 (0.2 M), followed by an incubation at room temperature for 150 min. Similarly, a blank was prepared by adding the sample solution in phosphate buffer without SNP. Griess reagent (solutions of 0.33% sulfanilic acid and 0.1% N-(1-naphthyl) ethylenediamine (NED) (C12H14N2) in 20% glacial acetic acid; 1:1) (100 µL) was added to the incubated sample and allowed to stand for 30 min. Absorbance values of the blank and samples were measured at 548 nm. The absorbance of the blank was then subtracted from that of the sample. Results were expressed as %inhibition. Inhibition I (%) = [(A0 − A1)/A0] × 100, where A1 is the absorbance in the presence of the testing compound, and A0 is the absorbance of the blank solution. All experiments were performed three times.

[5] = ABTS radical cation scavenging
Experimental: Thus, at the further steps, the complex investigation of the target compounds’ ability to interact with protons, electrons, and radicals was conducted.

| Structure (SMILES) | % Inhibition DPPH• [1] [%] | TEACCUPRAC [2] | % Inhibition FIC [3] | % Inhibition NO• [4] | % Inhibition ABTS+• [5] |
| --- | --- | --- | --- | --- | --- |
| [Se]=C(Nc1ccccc1)NC12CC3CC(CC(C3)C1)C2 [4a, 1-(Adamantan-1-yl)-3-phenylselenourea] | 44.89 ± 0.04 | 1.07 ± 0.11 | 13.6 ± 0.04% | non active |  |
| [Se]=C(NCC12CC3CC(CC(C3)C1)C2)Nc1ccccc1 [4b, 1-[(Adamantan-1-yl)methyl]-3-phenylselenourea] | 70.75 ± 1.10 | 3.04 ± 0.11 | 14.15 ± 2.27% | 20.57 ± 1.42% | 53.01 ± 1.62% |
| CC(NC(=[Se])Nc1ccccc1)C12CC3CC(CC(C3)C1)C2 (stereo not shown) [4c, 1-[1-(Adamantan-1-yl)ethyl]-3-phenylselenourea] | 68.81 ± 1.69 | 3.39 ± 0.11 | 21.90 ± 1.88% | 54.35 ± 2.38% | 77.44 ± 1.78% |
| [Se]=C(NCCC12CC3CC(CC(C3)C1)C2)Nc1ccccc1 [4d, 1-[2-(Adamantan-1-yl)ethyl]-3-phenylselenourea] | 70.90 ± 2.13 | 3.29 ± 0.12 | not established; also recorded: non active | 31.36 ± 2.48% | 64.55 ± 2.30% |
| [Se]=C(Nc1ccccc1)Nc1ccc(C23CC4CC(CC(C4)C2)C3)cc1 [4e, 1-[4-(Adamantan-1-yl)phenyl]-3-phenylselenourea] | 66.15 ± 0.56 | 0.99 ± 0.05 | not established; also recorded: non active | 2.63 ± 0.99% |  |
| CC12CC3CC(C)(C1)CC(NC(=[Se])Nc1ccccc1)(C3)C2 [4f, 1-(3,5-Dimethyladamantan-1-yl)-3-phenylselenourea] | 58.35 ± 0.92 | 0.22± 0.01 | 26.20 ± 3.20% | 7.27 ± 0.72% | do not exhibit antiradical properties; also recorded: nonactive |
| [Se]=C(Nc1ccccc1)NC1C2CC3CC(C2)CC1C3 (stereo not shown) [4g, 1-(Adamantan-2-yl)-3-phenylselenourea] | 71.82 ± 1.10 | 2.48 ± 0.16 | 19.74 ± 1.57% | 27.91 ± 1.50% | 47.21 ± 1.20% |
| [Se]=C(NCc1ccccc1)NC12CC3CC(CC(C3)C1)C2 [5a, 1-(Adamantan-1-yl)-3-benzylselenourea] | 59.45 ± 0.09 | 1.62 ± 0.4 | not established; also recorded: non active | non active |  |
